Test results from PMC3445454, “Broad and Cross-Clade CD4^+ T-Cell Responses Elicited by a DNA Vaccine Encoding Highly Conserved and Promiscuous HIV-1 M-Group Consensus Peptides” (PLoS ONE, 2012).
Where a chain is given by its changes, count along the chain named. pIC50: −log10 of the molar value.

How the values were obtained:
[1] = target: T1, HLA-DP DPA1*01:03/DPB1*04:01 (Homo sapiens, UniProt P04440+P20036); assay: biochemical; format: binding
T1 sequence (P20036 29-260): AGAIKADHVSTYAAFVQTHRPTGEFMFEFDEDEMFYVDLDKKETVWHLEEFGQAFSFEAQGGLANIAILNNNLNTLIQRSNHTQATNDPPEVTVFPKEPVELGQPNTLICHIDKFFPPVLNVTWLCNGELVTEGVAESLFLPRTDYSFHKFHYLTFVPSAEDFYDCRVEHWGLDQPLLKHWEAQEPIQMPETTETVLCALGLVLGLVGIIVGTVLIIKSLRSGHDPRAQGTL
T1 sequence (P04440 30-258): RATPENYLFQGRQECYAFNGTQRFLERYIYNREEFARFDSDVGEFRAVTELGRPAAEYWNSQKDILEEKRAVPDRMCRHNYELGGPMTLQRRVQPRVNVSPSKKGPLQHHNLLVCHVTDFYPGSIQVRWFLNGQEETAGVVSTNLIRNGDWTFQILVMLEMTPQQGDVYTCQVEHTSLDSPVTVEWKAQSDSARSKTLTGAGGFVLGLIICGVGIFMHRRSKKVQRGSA

[2] = target: T2, HLA-DP DPA1*01:03/DPB1*02:01 (Homo sapiens, UniProt P04440+P20036, A65V/A84D/A85E/K98E); assay: biochemical; format: binding
T2 sequence (P20036 29-260): T1 sequence (P20036 29-260)
T2 sequence (P04440 30-258 A65V/A84D/A85E/K98E): T1 sequence (P04440 30-258) with A36V, A55D, A56E, K69E

[3] = target: T3, HLA-DP DPA1*02:01/DPB1*14:01 (Homo sapiens, UniProt P04440+P20036, A65V/A84D/A85E/E86D/F191V/F38H/G113D/G114E/G40L/I94L/K142R/L158P/L37V/M105V/M116V/M62Q/P115A/Q81R/R125K/T114A/T199I/T259P); assay: biochemical; format: binding; details: read-out: Binding capacity/IC50 (nM) DPA1*02:01 DPB1*14:01
T3 sequence (P20036 29-260 A42M/M62Q/Q81R/T114A/K142R/L158P/F191V/T259P): T1 sequence (P20036 29-260) with A14M, M34Q, Q53R, T86A, K114R, L130P, F163V, T231P
T3 sequence (P04440 30-258 L37V/F38H/G40L/A65V/A84D/A85E/E86D/I94L/M105V/G113D/G114E/P115A/M116V/R125K/T199I/R223Q): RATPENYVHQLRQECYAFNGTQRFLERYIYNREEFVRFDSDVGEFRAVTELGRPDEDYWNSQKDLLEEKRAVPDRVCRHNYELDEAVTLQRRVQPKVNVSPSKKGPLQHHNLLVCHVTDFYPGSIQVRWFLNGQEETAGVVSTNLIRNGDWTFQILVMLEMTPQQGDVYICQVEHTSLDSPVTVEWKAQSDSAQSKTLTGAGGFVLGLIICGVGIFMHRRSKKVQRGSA

[4] = target: T4, HLA-DP DPA1*01:03/DPB1*03:01 (Homo sapiens, UniProt P04440+P20036, A65V/A84D/A85E/E86D/F38Y/G113D/G114E/G40L/I94L/L37V/M105V/M116V/P115A/R125K/T199I); assay: biochemical; format: binding; details: read-out: Binding capacity/IC50 (nM) DPA1*01:03 DPB1*03:01
T4 sequence (P20036 29-260): T1 sequence (P20036 29-260)
T4 sequence (P04440 30-258 L37V/F38Y/G40L/A65V/A84D/A85E/E86D/I94L/M105V/G113D/G114E/P115A/M116V/R125K/T199I): T3 sequence (P04440 30-258 L37V/F38H/G40L/A65V/A84D/A85E/E86D/I94L/M105V/G113D/G114E/P115A/M116V/R125K/T199I/R223Q) with H9Y, Q194R

[5] = target: HLA-DP DPA1*02:01/DPB1*01:01 (Homo sapiens, UniProt P04440+P20036, F191V/F38Y/F64Y/G113D/G114E/K142R/L158P/L37V/M105V/M116V/M62Q/P115A/Q81R/R125K/R223Q/T114A/T199I/T259P); assay: biochemical
[6] = target: T5, HLA-DP DPA1*02:01/DPB1*05:01 (Homo sapiens, UniProt P04440+P20036, A65V/A84E/F191V/F64L/G113D/G114E/K142R/L158P/M116V/M62Q/P115A/Q81R/R125K/T114A/T199I/T259P/V234M); assay: biochemical; format: binding; details: read-out: Binding capacity/IC50 (nM) DPA1*02:01 DPB1*05:01
T5 sequence (P20036 29-260 A42M/M62Q/Q81R/T114A/K142R/L158P/F191V/T259P): T1 sequence (P20036 29-260) with A14M, M34Q, Q53R, T86A, K114R, L130P, F163V, T231P
T5 sequence (P04440 30-258 F64L/A65V/A84E/G113D/G114E/P115A/M116V/R125K/T199I/V234M): T1 sequence (P04440 30-258) with F35L, A36V, A55E, G84D, G85E, P86A, M87V, R96K, T170I, V205M

[7] = target: T6, HLA-DP DPA1*01:03/DPB1*20:01 (Homo sapiens, UniProt P04440+P20036, A65V/A84D/A85E/E86D/F38Y/G113D/G114E/G40L/I94L/L37V/M116V/P115A/R125K/T199I); assay: biochemical; format: binding; details: read-out: Binding capacity/IC50 (nM) DPA1*01:03 DPB1*20:01
T6 sequence (P20036 29-260): T1 sequence (P20036 29-260)
T6 sequence (P04440 30-258 L37V/F38Y/G40L/A65V/A84D/A85E/E86D/I94L/G113D/G114E/P115A/M116V/R125K/T199I/V234M): T3 sequence (P04440 30-258 L37V/F38H/G40L/A65V/A84D/A85E/E86D/I94L/M105V/G113D/G114E/P115A/M116V/R125K/T199I/R223Q) with H9Y, V76M, Q194R, V205M

[8] = target: HLA-DP DPA1*03:01/DPB1*04:02 (Homo sapiens, UniProt P04440+P20036, A42M/A65V/A84D/A85E/L207M/L97S); assay: biochemical
[9] = system: splenocytes from HIVBr27 immunized mice; assay: murine IFN-γ ELISPOT assay; format: in vivo; details: splenocytes of HIVBr27-immunized BALB/c mice, 5 µM peptide
Description: Six to eight week-old female BALB/c mice were used in this study. Six mice per group were injected intramuscularly, at weeks 0, 2 and 4, with HIVBr27 plasmid or empty pVAX1. Each quadriceps was injected with 50 µL of DNA at a concentration of 1 µg/µL in saline such that each animal received a total of 100 µg of plasmid DNA per immunization. Two weeks after the last DNA immunization, mice were euthanized with CO2.
Two weeks after the last immunization, mice were euthanized and spleens were removed aseptically. After obtaining single cell suspensions, cells were washed in 10 mL of RPMI 1640. Cells were then resuspended in R-10 (RPMI supplemented with 10% of fetal bovine serum (GIBCO), 2 mM L-glutamine (Life Technologies), 1 mM sodium pyruvate (Life Technologies), 1% vol/vol non-essential amino acids solution (Life Technologies), 1% vol/vol vitamin solution (Life Technologies), […] of Gentamicin, […] of Peflacin and 5×10^−5 M 2β-mercaptoetanol (Life Technologies). The viability of cells was evaluated using 0.2% Trypan Blue exclusion dye to discriminate between live and dead cells. Cell concentration was estimated with the aid of a Neubauer chamber and adjusted in cell culture medium. […]

HLA-DR DRB5*01:01 = HLA-DR DRB5*01:01 (Homo sapiens, UniProt P01903+Q30154); assay: biochemical; format: binding
HLA-DR DRB3*01:01 = HLA-DR DRB3*01:01 (Homo sapiens, UniProt P01903+P79483); assay: biochemical; format: binding

Sequence of HLA-DP DPA1*02:01/DPB1*01:01 (P20036 29-260 A42M/M62Q/Q81R/T114A/K142R/L158P/F191V/T259P, other chains not shown): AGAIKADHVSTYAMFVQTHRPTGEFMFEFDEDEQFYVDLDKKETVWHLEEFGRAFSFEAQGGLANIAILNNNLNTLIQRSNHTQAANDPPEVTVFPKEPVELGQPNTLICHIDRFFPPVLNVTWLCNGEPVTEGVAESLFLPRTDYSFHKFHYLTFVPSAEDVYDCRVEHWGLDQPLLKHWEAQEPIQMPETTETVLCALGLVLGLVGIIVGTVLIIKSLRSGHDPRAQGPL

CC[C@H](C)[C@H](NC(=O)[C@H](CCSC)NC(=O)[C@@H](NC(=O)[C@H](CCC(N)=O)NC(=O)[C@H](Cc1c[nH]c2ccccc12)NC(=O)[C@H](CCCNC(=N)N)NC(=O)[C@H](CC(N)=O)NC(=O)[C@H](CCC(=O)O)NC(=O)[C@@H](N)CCSC)C(C)C)C(=O)N[C@H](C(=O)N[C@@H](Cc1c[nH]c2ccccc12)C(=O)N[C@@H](CCC(N)=O)C(=O)N[C@H](C(=O)N[C@@H](CC(=O)O)C(=O)N[C@@H](CCCNC(=N)N)C(N)=O)C(C)C)C(C)C [vif(1-15)]
pIC50 [1]: 7.89
pIC50 [2]: 5.81
IC50 [3]: 7240 nM
IC50 [4]: 5840 nM
pIC50 [5]: 5.99
IC50 [6]: 8170 nM
IC50 [7]: 364 nM
pIC50 [8]: 5.43

EWEFVSTPPLVKLWY [RT(413-427) B subtype]
IFN-γ secretion against variant compared to M-group consensus peptide [9]: reduced

EWEYVNTPPLVKLWY [RT(413-427) D subtype]
IFN-γ secretion against variant compared to M-group consensus peptide [9]: reduced

CSCC[C@H](NC(=O)[C@@H]1CCCN1C(=O)[C@H](CCCNC(=N)N)NC(=O)[C@H](CC(C)C)NC(=O)[C@@H]1CCCN1C(=O)[C@@H](NC(=O)[C@H](CCC(N)=O)NC(=O)[C@@H]1CCCN1C(=O)[C@H](CCCNC(=N)N)NC(=O)[C@@H](NC(=O)[C@@H]1CCCN1C(=O)[C@H](Cc1ccccc1)NC(=O)CN)C(C)C)C(C)C)C(=O)N[C@H](C(=O)N[C@@H](Cc1ccc(O)cc1)C(=O)N[C@@H](CCCCN)C(=O)NCC(=O)N[C@@H](C)C(=O)N[C@@H](Cc1ccccc1)C(=O)N[C@@H](CC(=O)O)C(=O)N[C@@H](CC(C)C)C(N)=O)[C@@H](C)O [nef(67-87)]
pIC50 (HLA-DR DRB5*01:01): 6.72
pIC50 (HLA-DR DRB3*01:01): 5.20
